# Where a name gives a salt, the structure may show the parent alone. Read-outs that look alike come from different tables or passages of the source. Marks after values point to notes of the source that are not given here.
# Key:
# [1] = Cataleptic activity in rats, compound alone without methylphenidate; details: rat, in vivo
# [2] = target: T1, D2 type central dopaminergic receptor (Homo sapiens, UniProt P14416); experiment: biochemical
# [3] = system: methylphenidate-induced behavior; experiment: Antagonism of methylphenidate-induced behavior in rats (chewing inhibition, normalization); type: in vivo, rat
# Procedure: The compounds were tested in vivo (Table II) to measure their ability to antagonize methylphenidate-induced behavior in rats. […] Colpaert J. Pharmacol. Exp. Ther. 267, 181 (1993). This test characterizes the antipsychotic activity in a more in-depth manner than apomorphine effect antagonism, the test conventionally used.
# [4] = target: T1, D2 type central dopaminergic receptor; details: radioligand 3H-YM-09151-2
# [5] = system: catalepsy; experiment: Cataleptic activity in rats, compound alone without methylphenidate; details: rat, i.p.; 3 or 5 animals
# [6] = Rattus norvegicus, ip, read-out: Chewing inhibition ED50
# [7] = Rattus norvegicus, ip, read-out: Normalization ED50
# [8] = Rattus norvegicus, po, read-out: Chewing inhibition ED50
# [9] = Rattus norvegicus, po, read-out: Normalization ED50
# [10] = ip, rat, i.p., 3 or 5 animals, read-out: Chewing inhibition ED50
# [11] = ip, rat, i.p., 3 or 5 animals, read-out: Normalization ED50
# T1 sequence (P14416 whole entry): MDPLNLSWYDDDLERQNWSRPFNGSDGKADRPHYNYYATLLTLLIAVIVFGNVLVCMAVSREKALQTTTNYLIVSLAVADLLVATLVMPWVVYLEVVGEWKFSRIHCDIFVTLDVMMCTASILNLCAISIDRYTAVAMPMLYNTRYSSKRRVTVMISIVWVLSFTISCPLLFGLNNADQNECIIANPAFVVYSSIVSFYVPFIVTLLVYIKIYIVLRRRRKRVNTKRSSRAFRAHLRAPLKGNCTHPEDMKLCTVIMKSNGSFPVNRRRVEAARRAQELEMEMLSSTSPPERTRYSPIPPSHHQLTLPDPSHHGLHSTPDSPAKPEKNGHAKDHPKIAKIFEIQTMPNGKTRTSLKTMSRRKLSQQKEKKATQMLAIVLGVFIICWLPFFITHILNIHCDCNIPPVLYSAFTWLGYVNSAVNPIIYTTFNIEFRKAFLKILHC
SMILES,ED50 ([1]; ip) [mg/kg],Ki [2] [nM],"ED50 [3, 6] [mg/kg]","ED50 [3, 7] [mg/kg]",further results
"CSc1c(C(=O)N[C@@H]2C[C@H]3CC[C@@H](C2)N3Cc2ccccc2)sc2ncccc12 [Example 2, 3-Methylsulfanylthieno[2,3-b]pyridine-2-carboxylic acid (8-benzyl-8-azabicyclo[3.2.1]oct-3β-yl)amide hydrochloride]",1.8,0.447,0.08,0.56,–
"COc1c(C(=O)N[C@@H]2C[C@H]3CC[C@@H](C2)N3Cc2ccccc2)oc2cccnc12 [Example 4, 3-Methoxyfuro[3,2-b]pyridine-2-carboxylic acid (8-benzyl-8-azabicyclo[3.2.1]oct-3β-yl)amide dihydrochloride]",> 40,2.04,0.12,0.98,–
"COc1c(C(=O)N[C@@H]2C[C@H]3CC[C@@H](C2)N3Cc2ccc(Cl)cc2)sc2ncccc12 [Example 8, 3-Methoxythieno[2,3-b]pyridine-2-carboxylic acid [8-(4-chlorobenzyl)-8-azabicyclo[3.2.1]oct-3β-yl]amide hydrochloride]",> 40,1.74,0.1,1.3,–
"COc1c(C(=O)N[C@@H]2C[C@H]3CC[C@@H](C2)N3CC2CCCCC2)sc2ncccc12 [Example 10, 3-Methoxythieno[2,3-b]pyridine-2-carboxylic acid [8-cyclohexylmethyl-8-azabicyclo[3.2.1]oct-3β-yl]amide fumarate]",> 40,2.57,1.25,5,–
"COc1c(C(=O)N[C@@H]2C[C@H]3CC[C@@H](C2)N3Cc2ccc(F)cc2)sc2ncccc12 [Example 11, 3-Methoxythieno[2,3-b]pyridine-2-carboxylic acid [(8-(4-fluorobenzyl)-8-azabicyclo[3.2.1]oct-3β-yl)]amide hydrochloride]",> 40,0.776,0.08,0.31,–
"COc1c(C(=O)N[C@@H]2C[C@H]3CC[C@@H](C2)N3Cc2ccsc2)sc2ncccc12 [Example 12, 3-Methoxythieno[2,3-b]pyridine-2-carboxylic acid [8-thiophen-3-ylmethyl-8-azabicyclo[3.2.1]oct-3β-yl]amide hydrochloride]",> 40,2.57,1.25,1.25,–
"COc1c(C(=O)N[C@@H]2C[C@H]3CC[C@@H](C2)N3Cc2ccccc2)sc2nccnc12 [Example 27, 3-Methoxythieno[2,3-b]pyrazine-2-carboxylic acid (8-benzyl-8-azabicyclo[3.2.1]oct-3β-yl)amide hydrochloride]",–,0.437,–,–,"ED50 ([1]; po): 9.5 mg/kg; ED50 [3, 8]: 0.27 mg/kg; ED50 [3, 9]: 0.67 mg/kg"
"COc1c(C(=O)N[C@@H]2C[C@H]3CC[C@@H](C2)N3Cc2ccc(F)cc2)sc2nccnc12 [Example 29, 3-Methoxythieno[2,3-b]pyrazine-2-carboxylic acid [8-(4-fluorobenzyl)-8-azabicyclo[3.2.1]oct-3β-yl]amide hydrochloride]",–,0.661,–,–,"ED50 ([1]; po): 5 mg/kg; ED50 [3, 8]: 0.08 mg/kg; ED50 [3, 9]: 0.32 mg/kg"
"CSc1c(C(=O)N[C@@H]2C[C@H]3CC[C@@H](C2)N3Cc2ccc(Cl)cc2)sc2nccnc12 [Example 31, 3-Methylsulfanylthieno[2,3-b]pyrazine-2-carboxylic acid [8-(4-chlorobenzyl)-8-azabicyclo[3.2.1]oct-3β-yl]amide hydrochloride]",–,2.04,–,–,"ED50 ([1]; po): 1.25 mg/kg; ED50 [3, 8]: 0.31 mg/kg; ED50 [3, 9]: 0.31 mg/kg"
"CSc1c(C(=O)N[C@@H]2C[C@H]3CC[C@@H](C2)N3Cc2ccc(F)cc2)sc2nccnc12 [Example 32, 3-Methylsulfanylthieno[2,3-b]pyrazine-2-carboxylic acid [8-(4-fluorobenzyl)-8-azabicyclo[3.2.1]oct-3β-yl]amide hydrochloride]",–,0.676,–,–,"ED50 ([1]; po): 1.25 mg/kg; ED50 [3, 8]: 0.08 mg/kg; ED50 [3, 9]: 0.31 mg/kg"
"O=C(CCCN1CCC(O)(c2ccc(Cl)cc2)CC1)c1ccc(F)cc1 [Haloperidol, reference compound]",0.32,–,–,–,"ED50 [3, 10]: 0.08 mg/kg; ED50 [3, 11]: 0.32 mg/kg"
"Cc1nc2n(c(=O)c1CCN1CCC(c3noc4cc(F)ccc34)CC1)CCCC2 [Risperidone, reference compound]",–,–,0.25,2.8,–
"CCN1CCCC1CNC(=O)c1cc(S(N)(=O)=O)ccc1OC (stereo not shown) [Sulpiride, reference compound]",> 160,–,–,–,"ED50 [3, 10]: > 40 mg/kg; ED50 [3, 11]: > 40 mg/kg"
"COc1cccc(C(=O)N[C@@H]2C[C@H]3CC[C@@H](C2)N3Cc2ccccc2)c1OC [Tropapride, reference compound]",–,–,–,–,"D2 affinity (pKi) [4]: 10.02; Catalepsy ED50 [5]: 0.015^a mg/kg; Chewing inhibition ED50 ([3]; rat, i.p., 3 or 5 animals): 0.0059^a mg/kg; Normalization ED50 ([3]; rat, i.p., 3 or 5 animals): 0.017^a mg/kg"

# From patent US7456192B2, “3β-amino azabicyclooctane heteroaromatic amid derivatives preparation method and therapeutic uses thereof” (Pierre Fabre Medicament, priority 2001, dated 2008)
